PMC11601558, “SLC6A19 inhibition facilitates urinary neutral amino acid excretion and lowers plasma phenylalanine” (JCI Insight, 2024)
Several values for one entry are separate records, joined by “and”; a condition that tells them apart may be missing. Equal entries are not always repeated.

Test system: Pah^enu2 mice
Assay: Urine amino acid excretion in Pah^enu2 mice after JN-170
Assay type: in vivo, mouse
Set-up: urine Gln excretion / urine Phe excretion: unit not given here
Details: for 12-hour urine Phe excretion (Fig 3c): individual Pah^enu2 mice
Experimental: Male homozygous BTBR-Pah<enu2>/J (Pah^enu2) aged 10–13 weeks were purchased from Jackson Laboratory (no. 002232). Immediately before dosing, each animal’s bladder was manually emptied and a plasma sample was drawn. Animals were dosed by oral gavage with vehicle (10% DMSO, 20% 2-hydroxypropyl-β-cyclodextrin [Sigma-Aldrich]) followed by a 1-week washout prior to dosing with JN-170 at doses ranging from 50 to 250 mg/kg. Following dosing with vehicle or JN-170, animals were individually placed in metabolic cages to collect urine samples. After collection of each urine sample, cages were rinsed with ultra-pure water to recover residual analytes. Blood samples were collected predose as well as 1, 3, 8, 12, and 24 hours after dosing with vehicle or JN-170 into tubes with EDTA as a […], and plasma was separated by centrifuging samples at 2,200g for 5 minutes at 4°C. Throughout the study, mice had access to food and water ad libitum. Plasma and urine samples were stored at –80°C until processing.Ten-week-old male WT C57Bl/6J animals (Si Bei Fu Laboratory Animal Technology Co. Ltd.) were dosed either with vehicle or 50–250 mg/kg JN-170 by oral gavage and blood and urine samples were collected as described. All animals had unrestricted access to food and water during the study; C57Bl/6J were kept on rodent maintenance diet from Beijing Keao Xieli, Pah^enu2 mice were kept on Teklad diet no. T.2018.
Urine and cage-wash samples were vortexed and centrifuged at 3,700g for 5 minutes to remove any solid precipitate. Neat samples and samples diluted 1:10 in water were further diluted 1:10 in crash solution (75% acetonitrile 25% methanol, 0.1% formic acid, 5 mM heavy labeled amino acids) to precipitate proteins. Samples were centrifuged at 3,700g for 5 minutes before the supernatant was transferred into an injection plate. Urine amino acid analysis was carried out using a quadrupole time of flight (QToF) LC-mass spectrometry (QToF-LC-MS) bioanalytical method. A standard curve of 1 mM down to 0.06 μM was used as the calibration curve to which samples were quantified. The amino acid concentrations were calculated with a 1/×2 linear regression over a concentration range of 60 nM to 1,000 μM of the individual amino acids. An Agilent QToF 6545 was operated in an accurate mass full scan range of 100–1,700 m/z positive ions formed by electrospray ionization with a normal phase HILIC chromatographic method. An Agilent InfinityLab Poroshell 120 HILIC-Z, 2.1 × 150 mm, 2.7 μm was used as the analytical column with 10 mM Ammonium Acetate in 0.1% FA as mobile phase A and 10 mM Ammonium Acetate in 95% ACN, 0.1% FA as mobile phase B. At a flow rate of 0.25 mL/min, the binary gradient increased from an initial 100% phase B to 90% phase B over 3 minutes. After 1.5 minutes, the gradient ramped to 80% mobile phase B. At 5.6 minutes into the gradient, mobile phase B ramped from 60% to 0% and held for 2 minutes before returning to initial conditions at 7.5 minutes. The gradient was stopped at 10 minutes.Total urine amino acid amounts were calculated by multiplying urine amino acid concentrations by the urine volume and adding the amount of amino acid recovered in the cage wash, which was calculated by multiplying the cage wash amino acid concentration by the cage wash volume.

[1] = Fig S3b, Pahenu2 mice, individual animals
[2] = Pah^enu2 mice, 0–3 hours after 200 mg/kg

## N#Cc1ccc(-c2noc([C@]3(C(F)(F)F)CCN(C(=O)NCCC4(N)CC4)C3)n2)cc1 [JN-170]
0–3 hours after 200 mg/kg
  urinary excretion of Phe, Pah^enu2 vs WT mice: approximately 60 fold
50 mg/kg vs vehicle
  change in 12 hour urine Arg excretion (Fig 3b): 0.3802 log FC
  change in 12 hour urine Gln excretion (Fig 3b): 1.423 log FC
  change in 12 hour urine Glu excretion (Fig 3b): 0.4771 log FC
  change in 12 hour urine His excretion (Fig 3b): 1.279 log FC
  change in 12 hour urine Lys excretion (Fig 3b): 0.2248 log FC
  change in 12 hour urine Met excretion (Fig 3b): 0.6756 log FC
  change in 12 hour urine Phe excretion (Fig 3b): 1.34 log FC
  change in 12 hour urine Pro excretion (Fig 3b): -0.2483 log FC
  change in 12 hour urine Ser excretion (Fig 3b): 0.9904 log FC
  change in 12 hour urine Thr excretion (Fig 3b): 1.084 log FC
  change in 12 hour urine Trp excretion (Fig 3b): 1.144 log FC
  change in 12 hour urine Tyr excretion (Fig 3b): 1.331 log FC
50 mg/kg
  12-hour urine Phe excretion (Fig 3c): 2329 µg and 2669 µg and 1215 µg and 2142 µg and 1931 µg and 2386 µg
100 mg/kg vs vehicle
  change in 12 hour urine Arg excretion (Fig 3b): 0.4771 log FC
  change in 12 hour urine Gln excretion (Fig 3b): 2.5092 log FC
  change in 12 hour urine Glu excretion (Fig 3b): 0.7782 log FC
  change in 12 hour urine His excretion (Fig 3b): 2.097 log FC
  change in 12 hour urine Lys excretion (Fig 3b): 0.583 log FC
  change in 12 hour urine Met excretion (Fig 3b): 1.421 log FC
  change in 12 hour urine Phe excretion (Fig 3b): 1.508 log FC
  change in 12 hour urine Pro excretion (Fig 3b): 0.2706 log FC
  change in 12 hour urine Ser excretion (Fig 3b): 1.62 log FC
  change in 12 hour urine Thr excretion (Fig 3b): 1.727 log FC
  change in 12 hour urine Trp excretion (Fig 3b): 1.687 log FC
  change in 12 hour urine Tyr excretion (Fig 3b): 1.929 log FC
100 mg/kg
  12-hour urine Phe excretion (Fig 3c): 3398 µg and 3162 µg and 4227 µg and 2980 µg and 2439 µg and 2425 µg
200 mg/kg
  12-hour urinary Phe excretion, mean ± SD: 4,170 ± 1505 μg
  12-hour urine Phe excretion (Fig 3c): 3871 µg and 5519 µg and 1571 µg and 5260 µg and 3572 µg and 5225 µg
200 mg/kg vs vehicle
  change in 12 hour urine Arg excretion (Fig 3b): 0.4472 log FC
  change in 12 hour urine Gln excretion (Fig 3b): 2.528 log FC
  change in 12 hour urine Glu excretion (Fig 3b): 0.7559 log FC
  change in 12 hour urine His excretion (Fig 3b): 2.089 log FC
  change in 12 hour urine Lys excretion (Fig 3b): 0.6206 log FC
  change in 12 hour urine Met excretion (Fig 3b): 1.349 log FC
  change in 12 hour urine Phe excretion (Fig 3b): 1.635 log FC
  change in 12 hour urine Pro excretion (Fig 3b): 0.1887 log FC
  change in 12 hour urine Ser excretion (Fig 3b): 1.594 log FC
  change in 12 hour urine Thr excretion (Fig 3b): 1.712 log FC
  change in 12 hour urine Trp excretion (Fig 3b): 1.74 log FC
  change in 12 hour urine Tyr excretion (Fig 3b): 1.783 log FC
250 mg/kg vs vehicle
  change in 12 hour urine Arg excretion (Fig 3b): 0.6435 log FC
  change in 12 hour urine Gln excretion (Fig 3b): 2.17 log FC
  change in 12 hour urine Glu excretion (Fig 3b): 0.7482 log FC
  change in 12 hour urine His excretion (Fig 3b): 1.862 log FC
  change in 12 hour urine Lys excretion (Fig 3b): 0.7733 log FC
  change in 12 hour urine Met excretion (Fig 3b): 1.454 log FC
  change in 12 hour urine Phe excretion (Fig 3b): 1.613 log FC
  change in 12 hour urine Pro excretion (Fig 3b): 0.0877 log FC
  change in 12 hour urine Ser excretion (Fig 3b): 1.762 log FC
  change in 12 hour urine Thr excretion (Fig 3b): 1.809 log FC
  change in 12 hour urine Trp excretion (Fig 3b): 1.96 log FC
  change in 12 hour urine Tyr excretion (Fig 3b): 1.972 log FC
250 mg/kg
  12-hour urine Phe excretion (Fig 3c): 2655 µg and 3486 µg and 5073 µg and 6377 µg and 3651 µg and 2501 µg
[1]
  urine Gln excretion: 800 and 1688 and 2419 and 1193 and 1615
  urine Phe excretion: 1730 and 2424 and 3033 and 1556 and 1834
[2]
  glutamine excreted in urine, mean ± SD: 1,543 ± 606 μg
  urinary excretion of Phe, mean ± SD: 2,115 ± 608 μg
≥ 200 mg/kg, 12-hour urine, vs vehicle
  increase in urinary Phe excretion: > 40 fold
